Experimental data: patent US10464922B2, “Metalloenzyme inhibitor compounds” (NQP 1598 LTD., priority 2015, dated 2019)
In brackets after ≈: the same amount, converted by molar mass.

Experiments:
[1] = tested on: A. fumigatus; assay: A. fumigatus MIC at 100% growth inhibition (CLSI M38-A2); assay type: cell-based, Aspergillus fumigatus; settings: 100% growth inhibition, range tested 8-0.0078 μg/mL, values given as ranges; for MIC: Aspergillus fumigatus, read-out: Aspergillus fumigatus MIC
Experimental: A. fumigatus MICs were determined at 100% growth inhibition following CLSI guidelines at a concentration range of 8-0.0078 μg/mL (CLSI M38-A2).

[2] = tested on: C. albicans (ATCC 90028); assay: Minimum inhibitory concentration, in vitro broth microdilution assay (CLSI M27-A2); assay type: cell-based, Candida albicans; settings: ATCC 90028, about 50% growth reduction, 2 days at 36° C., range tested 8-0.0078 μg/mL, values given as ranges; for MIC: Candida albicans, ATCC90028, 48 h, read-out: Candida albicans MIC
Experimental: The antifungal potency of the test compounds was measured using the in vitro broth microdilution assay under assay conditions described by the Clinical and Laboratory Standards Institute (CLSI M27-A2). The test compounds were dissolved in 100% DMSO, suspended completely by sonication or vortexing, diluted by 2-fold serial titrations in the same vehicle, for a total of 11 test concentrations. A 4 μL aliquot of each dilution was added to 196 μL of RPMI-1640+MOPS medium seeded with the C. albicans (ATCC 90028) suspension in wells of a 96 well plate (fungal cell count: 1×10^3 to 1×10^4 colony forming units per mL). The final volume was 200 μL in each well and the final DMSO concentration was 2 percent. The inoculated plates were incubated for 2 days at 36° C. Following incubation, the test plates were visually examined and wells were scored for growth to define the minimum inhibitory concentration. […] Each test substance was evaluated in duplicate. Vehicle-control and an active reference agent (e.g., posaconazole) were used as blank and positive controls, respectively.

| SMILES | MIC [1] [µg/mL] | MIC [2] [µg/mL] | Aspergillus fumigatus MIC [1] [µg/mL] | Candida albicans MIC [2] [µg/mL] |
| --- | --- | --- | --- | --- |
| CC[C@@H]([C@H](C)O)n1ncn(-c2ccc(N3CCN(c4ccc(-c5ccc(C(F)(F)C(O)(Cn6cncn6)c6ccc(F)cc6F)nc5)cc4)CC3)cc2)c1=O (single isomer, unassigned; (-)) [123(−)] | – | 0.01 to 0.1 (≈ 0.0132 to 0.132 µM) | 0.25 to 1.0 | – |
| OC(CC(F)(F)F)c1ccc(N2CCN(c3ccc(-c4ccc(C(F)(F)[C@](O)(Cn5cnnn5)c5ccccc5F)nc4)cc3)CC2)cn1 (single isomer, unassigned; (+)) [122(+)] | – | – | 0.25 to 1.0 | ≤0.0078 to 0.010 |
| OC(c1cn(-c2ccc(N3CCN(c4ccc(-c5ccc(C(F)(F)C(O)(Cn6cnnn6)c6ccccc6F)nc5)cc4)CC3)cc2)nn1)C(F)(F)F (single isomer, unassigned; (+)) [108(+), (+)-1,1-difluoro-2-(2-fluorophenyl)-3-(1H-tetrazol-1-yl)-1-(5-(4-(4-(4-(4-(2,2,2-trifluoro-1-hydroxyethyl)-1H-1,2,3-triazol-1-yl)phenyl)piperazin-1-yl)phenyl)pyridin-2-yl) propan-2-ol] | – | – | 0.25 to 1.0 | ≤0.0078 to 0.010 |
| OC(c1ccc(N2CCN(c3ccc(-c4ccc(C(F)(F)[C@](O)(Cn5cnnn5)c5ccc(F)cc5F)nc4)cc3)CC2)cn1)C(F)(F)F (single isomer, unassigned) [Example 6-Fr-I] | 0.25 to 1 (≈ 0.363 to 1.45 µM) | 0.01 to 0.1 (≈ 0.0145 to 0.145 µM) | – | – |
| CC(C)c1nc2cc(N3CCN(c4ccc(-c5ccc(C(F)(F)[C@](O)(Cn6cnnn6)c6ccc(F)cc6F)nc5)cc4)CC3)ccc2[nH]1 [Example 69, (R)-2-(2,4-difluorophenyl)-1,1-difluoro-1-(5-(4-(4-(2-isopropyl-1H-benzo [d]imidazol-5-yl)piperazin-1-yl)phenyl)pyridin-2-yl)-3-(1H-tetrazol-1-yl) propan-2-ol] | > 8 | 0.01 to 0.1 (≈ 0.0149 to 0.149 µM) | – | – |
| OC(c1ccc(N2CCN(c3ccc(-c4ccc(C(F)(F)[C@](O)(Cn5cnnn5)c5ccc(F)cc5F)nc4)cc3)CC2)cn1)C(F)(F)F (stereo partly drawn) [Example 6, (2R)-2-(2,4-difluorophenyl)-1,1-difluoro-3-(1H-tetrazol-1-yl)-1-(5-(4-(4-(6-(2,2,2-trifluoro-1-hydroxyethyl)pyridin-3-yl)piperazin-1-yl)phenyl)pyridin-2-yl) propan-2-ol] | – | – | 0.25 to 1.0 | ≤0.0078 to 0.010 |
| CCC(C(=O)Nc1ccc(N2CCN(c3ccc(-c4ccc(C(F)(F)[C@](O)(Cn5cnnn5)c5ccc(F)cc5F)nc4)cc3)CC2)cc1)C(C)O (stereo partly drawn) [Example 89, N-(4-(4-(4-(6-((R)-2-(2,4-difluorophenyl)-1,1-difluoro-2-hydroxy-3-(1H-tetrazol-1-yl)propyl)pyridin-3-yl)phenyl)piperazin-1-yl)phenyl)-2-ethyl-3-hydroxybutanamide] | 0.25 to 1 (≈ 0.348 to 1.39 µM) | 0.01 to 0.1 (≈ 0.0139 to 0.139 µM) | – | – |
| O=Cc1ccc(N2CCN(c3ccc(-c4ccc(C(F)(F)[C@](O)(Cn5cnnn5)c5ccc(F)cc5F)nc4)cc3)CC2)cc1 [Example 29, (R)-4-(4-(4-(6-(2-(2,4-difluorophenyl)-1,1-difluoro-2-hydroxy-3-(1H-tetrazol-1-yl)propyl)pyridin-3-yl)phenyl)piperazin-1-yl) benzaldehyde] | > 8 | 0.01 to 0.1 (≈ 0.0162 to 0.162 µM) | – | – |
| CC(C)Cc1nc2ccc(N3CCN(c4ccc(-c5ccc(C(F)(F)[C@](O)(Cn6cnnn6)c6ccc(F)cc6F)nc5)cc4)CC3)cc2[nH]1 [Example 78, (R)-2-(2,4-difluorophenyl)-1,1-difluoro-1-(5-(4-(4-(2-isobutyl-1H-benzo [d]imidazol-6-yl)piperazin-1-yl)phenyl)pyridin-2-yl)-3-(1H-tetrazol-1-yl) propan-2-ol] | > 8 | 0.01 to 0.1 (≈ 0.0146 to 0.146 µM) | – | – |

Now from value to compound:

| MIC [1] [µg/mL] | MIC [2] [µg/mL] | Aspergillus fumigatus MIC [1] [µg/mL] | Candida albicans MIC [2] [µg/mL] | SMILES |
| --- | --- | --- | --- | --- |
| 0.25 to 1 (≈ 0.354 to 1.42 µM) | 0.0078 to 0.01 (≈ 0.0111 to 0.0142 µM) | – | – | OC(c1cc(F)cc(N2CCN(c3ccc(-c4ccc(C(F)(F)[C@](O)(Cn5cnnn5)c5ccc(F)cc5F)nc4)cc3)CC2)c1)C(F)(F)F (stereo partly drawn) [Example 100, (2R)-2-(2,4-difluorophenyl)-1,1-difluoro-1-(5-(4-(4-(3-fluoro-5-(2,2,2-trifluoro-1-hydroxyethyl)phenyl)piperazin-1-yl)phenyl)pyridin-2-yl)-3-(1H-tetrazol-1-yl) propan-2-ol] |
| 0.25 to 1 (≈ 0.378 to 1.51 µM) | 0.0078 to 0.01 (≈ 0.0118 to 0.0151 µM) | – | – | CC(C)C(O)c1ccc(N2CCN(c3ccc(-c4ccc(C(F)(F)[C@](O)(Cn5cnnn5)c5ccc(F)cc5F)nc4)cc3)CC2)cc1 (stereo partly drawn) [Example 40, 1-(4-(4-(4-(6-((R)-2-(2,4-difluorophenyl)-1,1-difluoro-2-hydroxy-3-(1H-tetrazol-1-yl)propyl)pyridin-3-yl)phenyl)piperazin-1-yl)phenyl)-2-methylpropan-1-ol] |
| 0.25 to 1 (≈ 0.37 to 1.48 µM) | 0.0078 to 0.01 (≈ 0.0115 to 0.0148 µM) | – | – | CC(C)CC(O)c1ccc(N2CCN(c3ccc(-c4ccc(C(F)(F)[C@](O)(Cn5cnnn5)c5ccc(F)cc5F)nc4)cc3)CC2)cc1 (stereo partly drawn) [Example 41, 1-(4-(4-(4-(6-((R)-2-(2,4-difluorophenyl)-1,1-difluoro-2-hydroxy-3-(1H-tetrazol-1-yl)propyl)pyridin-3-yl)phenyl)piperazin-1-yl)phenyl)-3-methylbutan-1-ol] |
| > 8 | 0.0078 to 0.01 (≈ 0.0116 to 0.0149 µM) | – | – | N#Cc1ccc2nc(N3CCN(c4ccc(-c5ccc(C(F)(F)[C@](O)(Cn6cnnn6)c6ccc(F)cc6F)nc5)cc4)CC3)sc2c1 [Example 73, (R)-2-(4-(4-(6-(2-(2,4-difluorophenyl)-1,1-difluoro-2-hydroxy-3-(1H-tetrazol-1-yl)propyl)pyridin-3-yl)phenyl)piperazin-1-yl) benzo [d] thiazole-6-carbonitrile] |
| > 8 | 0.0078 to 0.01 (≈ 0.0124 to 0.0159 µM) | – | – | N#Cc1ccc(N2CCN(Cc3ccc(-c4ccc(C(F)(F)[C@](O)(Cn5cnnn5)c5ccc(F)cc5F)nc4)cc3)CC2)cc1 [Example 18, (R)-4-(4-(4-(6-(2-(2,4-difluorophenyl)-1,1-difluoro-2-hydroxy-3-(1H-tetrazol-1-yl)propyl)pyridin-3-yl)benzyl)piperazin-1-yl) benzonitrile] |
| 0.25 to 1 (≈ 0.364 to 1.46 µM) | 0.0078 to 0.01 (≈ 0.0114 to 0.0146 µM) | – | – | OC(c1ccc(N2CCN(c3ccc(-c4ccc(C(F)(F)[C@](O)(Cn5cnnc5)c5ccc(F)cc5F)nc4)cc3)CC2)cc1)C(F)(F)F (stereo partly drawn) [Example 16, (2R)-2-(2,4-difluorophenyl)-1,1-difluoro-3-(4H-1,2,4-triazol-4-yl)-1-(5-(4-(4-(4-(2,2,2-trifluoro-1-hydroxyethyl)phenyl)piperazin-1-yl)phenyl)pyridin-2-yl) propan-2-ol] |
| 0.25 to 1 (≈ 0.37 to 1.48 µM) | 0.0078 to 0.01 (≈ 0.0115 to 0.0148 µM) | – | – | CC(C)(C)C(O)c1ccc(N2CCN(c3ccc(-c4ccc(C(F)(F)[C@](O)(Cn5cnnn5)c5ccc(F)cc5F)nc4)cc3)CC2)cc1 (stereo partly drawn) [Example 43, 1-(4-(4-(4-(6-((R)-2-(2,4-difluorophenyl)-1,1-difluoro-2-hydroxy-3-(1H-tetrazol-1-yl)propyl)pyridin-3-yl)phenyl)piperazin-1-yl)phenyl)-2,2-dimethylpropan-1-ol] |
| > 8 | 0.0078 to 0.01 (≈ 0.0118 to 0.0152 µM) | – | – | OC(c1ccc(N2CCN(c3ccc(-c4ccc(C(F)(F)[C@](O)(Cn5cnnn5)c5ccc(F)cc5F)nc4)cc3)CC2)cc1)C1CC1 (stereo partly drawn) [Example 42, (2R)-1-(5-(4-(4-(4-(cyclopropyl (hydroxy)methyl)phenyl)piperazin-1-yl)phenyl)pyridin-2-yl)-2-(2,4-difluorophenyl)-1,1-difluoro-3-(1H-tetrazol-1-yl) propan-2-ol] |
| > 8 | 0.0078 to 0.01 (≈ 0.0121 to 0.0156 µM) | – | – | N#Cc1ccc(N2CCN(C(=O)c3ccc(-c4ccc(C(F)(F)[C@](O)(Cn5cnnn5)c5ccc(F)cc5F)nc4)cc3)CC2)cc1 [Example 19, (R)-4-(4-(4-(6-(2-(2,4-difluorophenyl)-1,1-difluoro-2-hydroxy-3-(1H-tetrazol-1-yl)propyl)pyridin-3-yl)benzoyl)piperazin-1-yl) benzonitrile] |
| 0.25 to 1 (≈ 0.364 to 1.45 µM) | 0.0078 to 0.01 (≈ 0.0113 to 0.0145 µM) | – | – | OC(c1ccc(N2CCN(c3ccc(-c4ccc(C(F)(F)[C@](O)(Cn5cnnn5)c5ccc(F)cc5F)nc4)cc3)CC2)cc1)C(F)(F)F (stereo partly drawn) [Example 3, (2R)-2-(2,4-difluorophenyl)-1,1-difluoro-3-(1H-tetrazol-1-yl)-1-(5-(4-(4-(4-(2,2,2-trifluoro-1-hydroxyethyl)phenyl)piperazin-1-yl)phenyl)pyridin-2-yl) propan-2-ol] |
| 0.062 to 0.25 (≈ 0.0802 to 0.323 µM) | 0.0078 to 0.01 (≈ 0.0101 to 0.0129 µM) | – | – | CC(C)C(C(C)O)n1ncn(-c2ccc(N3CCN(c4ccc(-c5ccc(C(F)(F)[C@](O)(Cn6cnnn6)c6ccc(F)cc6F)nc5)cc4)CC3)cc2)c1=O (stereo partly drawn) [Example 103, 4-(4-(4-(4-(6-((R)-2-(2,4-difluorophenyl)-1,1-difluoro-2-hydroxy-3-(1H-tetrazol-1-yl)propyl)pyridin-3-yl)phenyl)piperazin-1-yl)phenyl)-2-(2-hydroxy-4-methylpentan-3-yl)-2,4-dihydro-3H-1,2,4-triazol-3-one] |
| 0.25 to 1 (≈ 0.337 to 1.35 µM) | 0.0078 to 0.01 (≈ 0.0105 to 0.0135 µM) | – | – | CCC(CC)n1ncn(-c2ccc(N3CCN(c4ccc(-c5ccc(C(F)(F)[C@](O)(Cn6cnnn6)c6ccc(F)cc6F)nc5)cc4)CC3)cc2)c1=O [Example 66, (R)-4-(4-(4-(4-(6-(2-(2,4-difluorophenyl)-1,1-difluoro-2-hydroxy-3-(1H-tetrazol-1-yl)propyl)pyridin-3-yl)phenyl)piperazin-1-yl)phenyl)-2-(pentan-3-yl)-2,4-dihydro-3H-1,2,4-triazol-3-one] |
